From the NIST ThermoML archive (doi:10.1016/j.jct.2013.09.043)
± gives the expanded uncertainty stated by the source.

Experiments:
[1] = 101 kPa, Liquid; for viscosity: Capillary tube (Ostwald / Ubbelohde) method; for mass density: Vibrating tube method
[2] = xn = mol fraction of the nth substance listed; settings: 101 kPa, Liquid; for viscosity: Capillary tube (Ostwald / Ubbelohde) method; for mass density: Vibrating tube method

CCCCCC(C)O (stereo not drawn) [2-heptanol]
viscosity ([1]; 298.15 K): 5.296 ± 0.21 mPa·s | mass density ([1]; 298.15 K): 813.38 ± 1 kg/m3 | viscosity ([1]; 303.15 K): 4.315 ± 0.17 mPa·s | mass density ([1]; 303.15 K): 809.5 ± 1 kg/m3 | viscosity ([1]; 308.15 K): 3.535 ± 0.14 mPa·s | mass density ([1]; 308.15 K): 805.72 ± 1 kg/m3 | viscosity ([1]; 313.15 K): 2.96 ± 0.12 mPa·s | mass density ([1]; 313.15 K): 801.46 ± 1 kg/m3

CCCCC(C)O (stereo not drawn) [2-hexanol]
viscosity ([1]; 298.15 K): 4.101 ± 0.17 mPa·s | mass density ([1]; 298.15 K): 810.14 ± 1 kg/m3 | viscosity ([1]; 303.15 K): 3.411 ± 0.14 mPa·s | mass density ([1]; 303.15 K): 806.13 ± 1 kg/m3 | viscosity ([1]; 308.15 K): 2.819 ± 0.12 mPa·s | mass density ([1]; 308.15 K): 802.06 ± 1 kg/m3 | viscosity ([1]; 313.15 K): 2.219 ± 0.09 mPa·s | mass density ([1]; 313.15 K): 797.96 ± 1 kg/m3

CCC(C)O (stereo not drawn) [butan-2-ol]
viscosity ([1]; 298.15 K): 3.034 ± 0.12 mPa·s | mass density ([1]; 298.15 K): 803.09 ± 1 kg/m3 | viscosity ([1]; 303.15 K): 2.527 ± 0.1 mPa·s | mass density ([1]; 303.15 K): 798.89 ± 1 kg/m3 | viscosity ([1]; 308.15 K): 2.125 ± 0.086 mPa·s | mass density ([1]; 308.15 K): 795.04 ± 1 kg/m3 | viscosity ([1]; 313.15 K): 1.798 ± 0.073 mPa·s | mass density ([1]; 313.15 K): 790.15 ± 1 kg/m3

CCC(C)O (stereo not drawn) [butan-2-ol] + NC=O
viscosity ([2]; 298.15 K, x2 = 0): 3.034 ± 0.12 mPa·s | mass density ([2]; 298.15 K, x2 = 0): 803.09 ± 1 kg/m3 | viscosity ([2]; 303.15 K, x2 = 0): 2.527 ± 0.1 mPa·s | mass density ([2]; 303.15 K, x2 = 0): 798.89 ± 1 kg/m3 | viscosity ([2]; 308.15 K, x2 = 0): 2.125 ± 0.086 mPa·s | mass density ([2]; 308.15 K, x2 = 0): 795.04 ± 1 kg/m3 | viscosity ([2]; 313.15 K, x2 = 0): 1.798 ± 0.073 mPa·s | mass density ([2]; 313.15 K, x2 = 0): 790.15 ± 1 kg/m3

NC=O [formamide]
viscosity ([1]; 298.15 K): 3.305 ± 0.13 mPa·s | mass density ([1]; 298.15 K): 1129 ± 1 kg/m3 | viscosity ([1]; 303.15 K): 2.975 ± 0.12 mPa·s | mass density ([1]; 303.15 K): 1125.1 ± 1 kg/m3 | viscosity ([1]; 308.15 K): 2.64 ± 0.11 mPa·s | mass density ([1]; 308.15 K): 1120.98 ± 1 kg/m3 | viscosity ([1]; 313.15 K): 2.42 ± 0.098 mPa·s | mass density ([1]; 313.15 K): 1116.85 ± 1 kg/m3

NC=O [formamide] + CCCC(C)O
viscosity ([2]; 298.15 K, x1 = 1): 3.305 ± 0.13 mPa·s | mass density ([2]; 298.15 K, x1 = 1): 1129 ± 1 kg/m3 | viscosity ([2]; 303.15 K, x1 = 1): 2.975 ± 0.12 mPa·s | mass density ([2]; 303.15 K, x1 = 1): 1125.1 ± 1 kg/m3 | viscosity ([2]; 308.15 K, x1 = 1): 2.64 ± 0.11 mPa·s | mass density ([2]; 308.15 K, x1 = 1): 1120.98 ± 1 kg/m3 | viscosity ([2]; 313.15 K, x1 = 1): 2.42 ± 0.098 mPa·s | mass density ([2]; 313.15 K, x1 = 1): 1116.85 ± 1 kg/m3

NC=O [formamide] + CCCCC(C)O
viscosity ([2]; 298.15 K, x1 = 1): 3.305 ± 0.13 mPa·s | mass density ([2]; 298.15 K, x1 = 1): 1129 ± 1 kg/m3 | viscosity ([2]; 303.15 K, x1 = 1): 2.975 ± 0.12 mPa·s | mass density ([2]; 303.15 K, x1 = 1): 1125.1 ± 1 kg/m3 | viscosity ([2]; 308.15 K, x1 = 1): 2.64 ± 0.11 mPa·s | mass density ([2]; 308.15 K, x1 = 1): 1120.98 ± 1 kg/m3 | viscosity ([2]; 313.15 K, x1 = 1): 2.42 ± 0.098 mPa·s | mass density ([2]; 313.15 K, x1 = 1): 1116.85 ± 1 kg/m3

NC=O [formamide] + CCCCCC(C)O
viscosity ([2]; 298.15 K, x1 = 1): 3.305 ± 0.13 mPa·s | mass density ([2]; 298.15 K, x1 = 1): 1129 ± 1 kg/m3 | viscosity ([2]; 303.15 K, x1 = 1): 2.975 ± 0.12 mPa·s | mass density ([2]; 303.15 K, x1 = 1): 1125.1 ± 1 kg/m3 | viscosity ([2]; 308.15 K, x1 = 1): 2.64 ± 0.11 mPa·s | mass density ([2]; 308.15 K, x1 = 1): 1120.98 ± 1 kg/m3 | viscosity ([2]; 313.15 K, x1 = 1): 2.42 ± 0.098 mPa·s | mass density ([2]; 313.15 K, x1 = 1): 1116.85 ± 1 kg/m3

CCCC(C)O (stereo not drawn) [pentan-2-ol]
viscosity ([1]; 298.15 K): 3.423 ± 0.14 mPa·s | mass density ([1]; 298.15 K): 805.05 ± 1 kg/m3 | viscosity ([1]; 303.15 K): 2.834 ± 0.12 mPa·s | mass density ([1]; 303.15 K): 800.88 ± 1 kg/m3 | viscosity ([1]; 308.15 K): 2.348 ± 0.095 mPa·s | mass density ([1]; 308.15 K): 796.89 ± 1 kg/m3 | viscosity ([1]; 313.15 K): 1.979 ± 0.08 mPa·s | mass density ([1]; 313.15 K): 792.62 ± 1 kg/m3

CC(C)O [propan-2-ol]
viscosity ([1]; 298.15 K): 2.077 ± 0.084 mPa·s | mass density ([1]; 298.15 K): 780.95 ± 1 kg/m3 | viscosity ([1]; 303.15 K): 1.787 ± 0.072 mPa·s | mass density ([1]; 303.15 K): 776.79 ± 1 kg/m3 | viscosity ([1]; 308.15 K): 1.558 ± 0.063 mPa·s | mass density ([1]; 308.15 K): 772.39 ± 1 kg/m3 | viscosity ([1]; 313.15 K): 1.351 ± 0.055 mPa·s | mass density ([1]; 313.15 K): 767.76 ± 1 kg/m3

CC(C)O [propan-2-ol] + NC=O
viscosity ([2]; 298.15 K, x2 = 0): 2.077 ± 0.084 mPa·s | mass density ([2]; 298.15 K, x2 = 0): 780.95 ± 1 kg/m3 | viscosity ([2]; 303.15 K, x2 = 0): 1.787 ± 0.072 mPa·s | mass density ([2]; 303.15 K, x2 = 0): 776.79 ± 1 kg/m3 | viscosity ([2]; 308.15 K, x2 = 0): 1.558 ± 0.063 mPa·s | mass density ([2]; 308.15 K, x2 = 0): 772.39 ± 1 kg/m3 | viscosity ([2]; 313.15 K, x2 = 0): 1.351 ± 0.055 mPa·s | mass density ([2]; 313.15 K, x2 = 0): 767.76 ± 1 kg/m3
